Assay results reported in patent US20260116892A1, “CRYSTAL FORM OF COMPOUND AND PREPARATION METHOD THEREFOR” (NANJING INNOCARE PHARMA TECH CO., LTD., priority 2022, published 2026).
“Also recorded” adds a separate entry of the source.

What was measured:
Type in all cases: physicochemical
[1] = Suspension competition experiment between the crystalline forms in solution; details: equal amount of forms A/B in saturated solution of isopropyl alcohol and water, room temperature, stirring 2 days
Method: The transformation relationship between the crystalline forms was studied by a suspension competition experiment in the solution. The suspension competition between the crystalline form A and the crystalline form B was carried out at room temperature. The crystalline form A was obtained by adding equal amount of the crystalline form A/B to the saturated solution of isopropyl alcohol and water with suspending and stirring for 2 days.

[2] = Hygroscopicity assessment by dynamic vapor sorption (DVS); details: 25° C.
Method: The “hygroscopicity” described in the present invention refers to the characteristic of the substance's ability or degree of absorbing water under the conditions of certain temperature and humidity. Regarding to the characteristic description of hygroscopicity and the definition of hygroscopic weight gain (performing experiments according to the method of guideline 9103 of Pharmacopoeia of the People's Republic of China (2015) Volume IV. experimental conditions: 25° C.±1° C., 80%±2% of relative humidity):
deliquescence: sufficient water absorption to form a solution; very hygroscopic: hygroscopic weight gain of not less than 15%; phygroscopic: hygroscopic weight gain of less than 15% but not less than 2%; slightly hygroscopic: hygroscopic weight gain of less than 2% but not less than 0.2%; not or almost not hygroscopic: hygroscopic weight gain of less than 0.2%.
The dynamic vapor sorption (DVS) diagram described in the present invention was acquired using an Intrinsic dynamic vapor sorption instrument produced by SMS (Surface Measurement Systems Ltd.). The method parameters of the dynamic vapor sorption described in the present invention are as follows: […]
About 30 mg of the crystalline form A of the present invention was taken and subjected to a dynamic vapor sorption test using a dynamic vapor sorption (DVS). […] The XRPD was measured before and after the test.

[3] = Stability assessment of the crystalline form A (solid, accelerated and 12 months)
Excerpt: The “stability” described in the present invention refers to that neither degradation of the crystalline form has been found nor transformation to other crystalline form has been detected in the determination of the crystalline form by analytical means such as LC detection, XRPD, etc.
The solid sample of crystalline form A was exposed to high temperature, high humidity and light (open) for au one month accelerated stability study to observe the purity of the sample and the stability of the crystalline form.
The solid sample of crystalline form A was placed under the 30° C./65% RH (closed) for a 12 months stability study to observe the purity of the sample and the stability of the crystalline form (XRPD pattern).

[4] = 12 months, 30° C./65% RH (closed)
[5] = Acceleration for 1 month (25° C., 90% ± 5% RH), open
[6] = Acceleration for 1 month (60° C.), open
[7] = Acceleration for 13 days (10 days of light exposure, 3 days of UV exposure), open

| Crystalline form before and after DVS test (XRPD) ([2]; 0% RH to 95% RH) | Weight gain (DVS) ([2]; 80% relative humidity) [%] | Purity (%) ([3]; 0 month (start of stability study)) | Crystalline form (XRPD) [3, 4] | Purity (%) [3, 4] [%] | Crystalline form (XRPD) [3, 5] | Purity (%) [3, 5] [%] | Crystalline form (XRPD) [3, 6] | Purity (%) [3, 6] [%] | Crystalline form (XRPD) [3, 7] | Purity (%) [3, 7] [%] | SMILES | Thermodynamic stability / transformation in suspension competition [1] | Stability (conclusion in words) ([3]; 60° C. 1 month, 25° C./90%±5% RH 1 month, light 13 days, 30° C./65% RH 12 months) |
| --- | --- | --- | --- | --- | --- | --- | --- | --- | --- | --- | --- | --- | --- |
|  |  |  |  |  |  |  |  |  |  |  | C[C@H]1CNC(=O)Nc2cnn3ccc(nc23)N2C[C@@H](F)C[C@@H]2c2cc(F)cnc2O1 [crystalline form B, (2^2R,2^4S,5S)-2^4,3^5-difluoro-5-methyl-4-oxa-7,9-diaza-1(5,3)-pyrazolo[1,5-a]pyrimidin-3(3,2)-pyridin-2(1,2)-pyrrolidincyclononan-8-one] | can be transformed into the crystalline form A |  |
| remained unchanged | 0.46 | 98.9 | Unchanged | 99.4 | Unchanged | 98.5 | Unchanged | 98.3 | Unchanged | 99.4 | C[C@H]1CNC(=O)Nc2cnn3ccc(nc23)N2C[C@@H](F)C[C@@H]2c2cc(F)cnc2O1 [crystalline form A, (2^2R,2^4S,5S)-2^4,3^5-difluoro-5-methyl-4-oxa-7,9-diaza-1(5,3)-pyrazolo[1,5-a]pyrimidin-3(3,2)-pyridin-2(1,2)-pyrrolidincyclononan-8-one] | better thermodynamic stability | stable state; also recorded: good stability |
